Experimental data: PubChem BioAssay AID200 (DTP/NCI, 2004)
Values joined by “and” are separate entries in the source; they are usually repeats but may differ in a detail not shown here. Equal values may be shown once. Inconclusive results and toxic doses are left out. Where a SMILES comes first, the peptide text is derived from it.

Test system: B6C3F1 mice, B16 melanoma ip, median survival T/C
Assay: NCI In Vivo Anticancer Drug Screen. Data for tumor model B16 Melanoma (intraperitoneal) in B6C3F1 mice
Conditions: endpoint: median survival time, higher = longer survival
In short: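 Readout: survival or tumor size in treated mice relative to vehicle controls (T/C). Model uses transplantable tumors grown in mice.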

[1] = dose: 25.0 mg/kg/injection, schedule: Q01DX009 (ip), vehicle: saline with Tween-80
[2] = dose: 50.0 mg/kg/injection, schedule: Q01DX009 (ip), vehicle: saline with Tween-80
[3] = dose: 100.0 mg/kg/injection, schedule: Q01DX009 (ip), vehicle: saline with Tween-80
[4] = dose: 100.0 mg/kg/injection, schedule: Q01DX009 (ip), vehicle: Klucel (hydroxypropylcellulose) (HPC)
[5] = dose: 200.0 mg/kg/injection, schedule: Q01DX009 (ip), vehicle: Klucel (hydroxypropylcellulose) (HPC)
[6] = dose: 400.0 mg/kg/injection, schedule: Q01DX009 (ip), vehicle: Klucel (hydroxypropylcellulose) (HPC)
[7] = dose: 12.5 mg/kg/injection, schedule: Q01DX009 (ip), vehicle: saline with Tween-80

Compound: Nc1nc(N)c(N=O)c(Nc2ccc(Br)cc2)n1
- T/C [1]: 114 % of control
- T/C [2]: 107 % of control
- T/C [3]: 106 % of control

Compound: CSCCC(NC(=O)CNC(=O)CNC(=O)OCc1ccccc1)C(=O)O (configuration not stated) (HELM PEPTIDE1{[O=C(OCc1ccccc1)[*:2]].G.G.[CSCCC(N[*:1])C(=O)O]}$$$$V2.0)
- T/C [4]: 100 % of control
- T/C [5]: 103 % of control
- T/C [6]: 108 % of control

Compound: CC(C)(C)OC(=O)N(C=O)C(Cc1c[nH]c2ccccc12)C(=O)O (configuration not stated)
- T/C [4]: 94 % of control
- T/C [5]: 88 % of control
- T/C [6]: 86 % of control

Compound: CN1c2c(nc(N)[nH]c2=O)NCC1CCNc1ccc(C(=O)NC(CCC(=O)O)C(=O)O)cc1 (configuration not stated)
- T/C (dose: 50.0 mg/kg/injection, schedule: Q01DX009 (ip), vehicle: sodium bicarbonate): 105 % of control
- T/C (dose: 100.0 mg/kg/injection, schedule: Q01DX009 (ip), vehicle: sodium bicarbonate): 114 % of control

Compound: Nc1nc(-c2ccccc2)c(Br)c(=O)[nH]1
- T/C [2]: 156 % of control and 183 % of control
- T/C (dose: 800.0 mg/kg/injection, schedule: Q01DX009 (ip), vehicle: saline with Tween-80): 116 % of control

Compound: Cc1ccc(C(=O)NC2C(=O)NC(C(C)C)C(=O)N3CCCC3C(=O)N(C)CC(=O)N(C)C(C(C)C)C(=O)OC2C)c2c1Oc1c(c(C(=O)NC3C(=O)NC(C(C)C)C(=O)N4CCCC4C(=O)N(C)CC(=O)N(C)C(C(C)C)C(=O)OC3C)c3nc(-c4ccccc4)c(=O)oc3c1C)N2 (configuration not stated)
- T/C (dose: 0.5 mg/kg/injection, schedule: Q01DX009 (ip), vehicle: water): 157 % of control

Compound: NC(=O)/C=C/C(N)=O
- T/C [7]: 113 % of control
- T/C [1]: 109 % of control
- T/C [2]: 89 % of control

Compound: N=C1C=C[C@]2(O)C[C@H](Cl)CN12
- T/C (dose: 0.75 mg/kg/injection, schedule: Q01DX009 (ip), vehicle: saline): 102 % of control
- T/C (dose: 1.5 mg/kg/injection, schedule: Q01DX009 (ip), vehicle: saline): 111 % of control
- T/C (dose: 3.0 mg/kg/injection, schedule: Q01DX009 (ip), vehicle: saline): 119 % of control
- T/C (dose: 6.0 mg/kg/injection, schedule: Q01DX009 (ip), vehicle: saline): 104 % of control

Compound: COc1c(C=O)c2c(c(OC)c1OC)-c1ccc(OC)c(=O)cc1[C@@H](NC(C)=O)CC2
- T/C (dose: 0.78 mg/kg/injection, schedule: Q01DX009 (ip), vehicle: Klucel (hydroxypropylcellulose) (HPC)): 116 % of control
- T/C (dose: 1.56 mg/kg/injection, schedule: Q01DX009 (ip), vehicle: Klucel (hydroxypropylcellulose) (HPC)): 111 % of control and 121 % of control and 124 % of control
- T/C (dose: 3.12 mg/kg/injection, schedule: Q01DX009 (ip), vehicle: Klucel (hydroxypropylcellulose) (HPC)): 123 % of control and 107 % of control
- T/C (dose: 6.25 mg/kg/injection, schedule: Q01DX009 (ip), vehicle: Klucel (hydroxypropylcellulose) (HPC)): 116 % of control
- T/C (dose: 12.5 mg/kg/injection, schedule: Q01DX009 (ip), vehicle: Klucel (hydroxypropylcellulose) (HPC)): 120 % of control
- T/C (dose: 12.6 mg/kg/injection, schedule: Q01DX009 (ip), vehicle: Klucel (hydroxypropylcellulose) (HPC)): 114 % of control

Compound: O=NN(CCCl)C(=O)NC1CCC(=O)NC1=O (configuration not stated)
- T/C (dose: 0.8 mg/kg/injection, schedule: Q01DX005 (ip), vehicle: saline + alcohol): 118 % of control
- T/C (dose: 0.8 mg/kg/injection, schedule: Q01DX005 (iv), vehicle: saline + alcohol): 96 % of control
- T/C (dose: 1.6 mg/kg/injection, schedule: Q01DX005 (ip), vehicle: saline + alcohol): 155 % of control
- T/C (dose: 2.0 mg/kg/injection, schedule: Q01DX005 (ip), vehicle: saline + alcohol): 175 % of control
- T/C (dose: 2.0 mg/kg/injection, schedule: Q01DX005 (iv), vehicle: saline + alcohol): 102 % of control
- T/C (dose: 3.2 mg/kg/injection, schedule: Q01DX005 (ip), vehicle: saline + alcohol): 197 % of control
- T/C (dose: 3.2 mg/kg/injection, schedule: Q01DX005 (iv), vehicle: saline + alcohol): 151 % of control
- T/C (dose: 4.0 mg/kg/injection, schedule: Q01DX001 (ip), vehicle: saline + alcohol): 195 % of control
- T/C (dose: 4.0 mg/kg/injection, schedule: Q01DX001 (iv), vehicle: saline + alcohol): 124 % of control
- T/C (dose: 4.0 mg/kg/injection, schedule: Q01DX005 (ip), vehicle: saline + alcohol): 300 % of control
- T/C (dose: 4.0 mg/kg/injection, schedule: Q01DX005 (iv), vehicle: saline + alcohol): 180 % of control
- T/C (dose: 6.4 mg/kg/injection, schedule: Q01DX005 (ip), vehicle: saline + alcohol): 275 % of control
- T/C (dose: 8.0 mg/kg/injection, schedule: Q01DX001 (ip), vehicle: saline + alcohol): 200 % of control and 291 % of control
- T/C (dose: 8.0 mg/kg/injection, schedule: Q01DX001 (iv), vehicle: saline + alcohol): 162 % of control
- T/C (dose: 8.0 mg/kg/injection, schedule: Q01DX005 (ip), vehicle: saline + alcohol): 105 % of control
- T/C (dose: 8.0 mg/kg/injection, schedule: Q01DX005 (iv), vehicle: saline + alcohol): 150 % of control
- T/C (dose: 8.0 mg/kg/injection, schedule: Q01DX005 (oral), vehicle: saline + alcohol): 210 % of control
- T/C (dose: 16.0 mg/kg/injection, schedule: Q01DX001 (ip), vehicle: saline + alcohol): 255 % of control and 317 % of control
- T/C (dose: 16.0 mg/kg/injection, schedule: Q01DX001 (iv), vehicle: saline + alcohol): 194 % of control and 216 % of control
- T/C (dose: 16.0 mg/kg/injection, schedule: Q01DX001 (oral), vehicle: saline + alcohol): 183 % of control
- T/C (dose: 32.0 mg/kg/injection, schedule: Q01DX001 (oral), vehicle: saline + alcohol): 89 % of control

Compound: CCN(CC)CC(=O)O[C@]1(CC)C(=O)OCc2c1cc1n(c2=O)Cc2cc3ccccc3nc2-1
- T/C (dose: 1.0 mg/kg/injection, schedule: Q01DX009 (ip), vehicle: water): 108 % of control
- T/C (dose: 2.0 mg/kg/injection, schedule: Q01DX009 (ip), vehicle: water): 121 % of control
- T/C (dose: 4.8 mg/kg/injection, schedule: Q01DX009 (ip), vehicle: water): 152 % of control
- T/C (dose: 8.0 mg/kg/injection, schedule: Q01DX009 (ip), vehicle: water): 166 % of control

Compound: CC1/C=C/C=C/CC/C=C/C=C/C=C/C=C/C(OC2OC(C)C(O)C(N)C2O)CC2OC(CC(O)C(O)CCC(O)CC(O)CC(O)CC(=O)OC(C)C(C)C1O)CC(O)C2C(=O)O (configuration not stated)
- T/C (dose: 6.25 mg/kg/injection, schedule: Q01DX009 (ip), vehicle: saline with Tween-80): 107 % of control
- T/C [7]: 96 % of control
- T/C [1]: 102 % of control
- T/C [2]: 98 % of control
- T/C [3]: 90 % of control

Compound: COCC1OC2OC3C(COC)OC(OC4C(COC)OC(OC5C(COC)OC(OC6C(COC)OC(OC7C(COC)OC(OC8C(COC)OC(OC1C(O)C2O)C(O)C8O)C(O)C7O)C(O)C6O)C(O)C5O)C(O)C4O)C(O)C3O (configuration not stated) (tested in a mixture with another compound)
- T/C (dose: 25.0 mg/kg/injection, schedule: Q01DX009 (ip), vehicle: Klucel (hydroxypropylcellulose) (HPC)): 87 % of control
- T/C (dose: 25.0 mg/kg/injection, schedule: Q04HX027 (ip), vehicle: Klucel (hydroxypropylcellulose) (HPC)): 93 % of control
- T/C (dose: 50.0 mg/kg/injection, schedule: Q01DX009 (ip), vehicle: Klucel (hydroxypropylcellulose) (HPC)): 90 % of control
- T/C (dose: 50.0 mg/kg/injection, schedule: Q01DX009 (oral), vehicle: Klucel (hydroxypropylcellulose) (HPC)): 93 % of control
- T/C (dose: 50.0 mg/kg/injection, schedule: Q04HX027 (ip), vehicle: Klucel (hydroxypropylcellulose) (HPC)): 86 % of control
- T/C (dose: 50.0 mg/kg/injection, schedule: Q04HX027 (oral), vehicle: Klucel (hydroxypropylcellulose) (HPC)): 97 % of control
- T/C [4]: 105 % of control
- T/C (dose: 100.0 mg/kg/injection, schedule: Q01DX009 (oral), vehicle: Klucel (hydroxypropylcellulose) (HPC)): 89 % of control and 93 % of control
- T/C (dose: 100.0 mg/kg/injection, schedule: Q04HX027 (ip), vehicle: Klucel (hydroxypropylcellulose) (HPC)): 97 % of control
- T/C (dose: 100.0 mg/kg/injection, schedule: Q04HX027 (oral), vehicle: Klucel (hydroxypropylcellulose) (HPC)): 106 % of control
- T/C [5]: 90 % of control
- T/C (dose: 200.0 mg/kg/injection, schedule: Q04HX027 (oral), vehicle: Klucel (hydroxypropylcellulose) (HPC)): 105 % of control
- T/C [6]: 86 % of control
- T/C (dose: 400.0 mg/kg/injection, schedule: Q01DX009 (oral), vehicle: Klucel (hydroxypropylcellulose) (HPC)): 86 % of control and 102 % of control
- T/C (dose: 400.0 mg/kg/injection, schedule: Q04HX027 (oral), vehicle: Klucel (hydroxypropylcellulose) (HPC)): 101 % of control
- T/C (dose: 800.0 mg/kg/injection, schedule: Q01DX009 (oral), vehicle: Klucel (hydroxypropylcellulose) (HPC)): 93 % of control
- T/C (dose: 800.0 mg/kg/injection, schedule: Q04HX027 (oral), vehicle: Klucel (hydroxypropylcellulose) (HPC)): 110 % of control
- T/C (dose: 1600.0 mg/kg/injection, schedule: Q01DX009 (oral), vehicle: Klucel (hydroxypropylcellulose) (HPC)): 92 % of control
- T/C (dose: 1600.0 mg/kg/injection, schedule: Q04HX027 (oral), vehicle: Klucel (hydroxypropylcellulose) (HPC)): 103 % of control
- T/C (dose: 3200.0 mg/kg/injection, schedule: Q01DX009 (oral), vehicle: Klucel (hydroxypropylcellulose) (HPC)): 95 % of control
